# Assay results reported in the supplement of paper PMC13380429.
# ± gives the standard deviation of the averaged measurements.
# Experiments:
# Details in all cases: 72 h
# [1] = system: Calu-3; assay: cell viability relative to DMSO; higher = less toxic
# [2] = system: U2OS; assay: as above
# [3] = system: Vero E6; assay: as above
# [4] = system: HepG2; assay: as above
# [5] = system: Caco-2; assay: as above
# [6] = system: Calu-3; assay: drug sensitivity score (DSS) for viability; higher = more toxic; extreme values may be limits of the assay
# [7] = system: U2OS; assay: as above
# [8] = system: Vero E6; assay: as above
# [9] = system: HepG2; assay: as above
# [10] = system: Caco-2; assay: as above
# [11] = system: Calu-3; assay: relative viability EC50 (midpoint between 100% and the lowest measured viability); higher = less toxic
# [12] = system: U2OS; assay: as above
# [13] = system: Vero E6; assay: as above
# [14] = system: HepG2; assay: as above
# [15] = system: Caco-2; assay: as above
SMILES,cell viability ([1]; 1 nM),cell viability ([1]; 10 nM),cell viability ([1]; 100 nM),cell viability ([1]; 1000 nM),cell viability ([1]; 10000 nM),cell viability ([2]; 1 nM),cell viability ([2]; 10 nM),cell viability ([2]; 100 nM),cell viability ([2]; 1000 nM),cell viability ([2]; 10000 nM),cell viability ([3]; 1 nM),cell viability ([3]; 10 nM),cell viability ([3]; 100 nM),cell viability ([3]; 1000 nM),cell viability ([3]; 10000 nM),cell viability ([4]; 1 nM),cell viability ([4]; 10 nM),cell viability ([4]; 100 nM),cell viability ([4]; 1000 nM),cell viability ([4]; 10000 nM),cell viability ([5]; 1 nM),cell viability ([5]; 10 nM),cell viability ([5]; 100 nM),cell viability ([5]; 1000 nM),cell viability ([5]; 10000 nM),drug sensitivity score [6],drug sensitivity score [7],drug sensitivity score [8],drug sensitivity score [9],drug sensitivity score [10],relative viability EC50 [11],relative viability EC50 [12],relative viability EC50 [13],relative viability EC50 [14],relative viability EC50 [15]
O=C(N[C@@H](Cc1c[nH]c2ccccc12)C(=O)O)c1ccc(Cl)cc1 [benzotript],87.8%,99.4%,98%,100%,108%,96%,99.5%,94.3%,101%,95.9%,104%,99.3%,98.1%,102%,107%,99.7%,98.1%,102%,103%,108%,99.9%,102%,101%,100%,99.4%,0,0,0,0,0,> 10 µM,> 10 µM,> 10 µM,> 10 µM,> 10 µM
CC1(C)CCC2=C(O1)c1ccccc1C(=O)C2=O [beta-lapachone],109%,91.4%,110%,106%,91.2%,106%,100%,101%,96.5%,21.5%,104%,105%,101%,102%,91.6%,107%,99.3%,94.4%,99.5%,7.5%,101%,96.5%,91.9%,96.3%,29.9%,0,4.8,0,5.2,4.4,> 10 µM,2.83 µM,> 10 µM,3.12 µM,2.75 µM
O=C1c2ccccc2C(=O)C1c1ccc(Br)cc1 [bromindione],107%,93.8%,103%,95.6%,106%,104%,99.7%,102%,96.5%,102%,102%,103%,103%,104%,99.4%,103%,103%,107%,108%,99.5%,105%,70.7%,95.6%,80.8%,96.3%,0,0,0,0,0,> 10 µM,> 10 µM,> 10 µM,> 10 µM,> 10 µM
CCN(CC)CCNC(=O)c1cc(Br)c(N)cc1OC [bromopride],102%,99%,95.8%,104%,111%,101%,99.1%,105%,99.4%,101%,95.9%,100%,92.9%,99.8%,104%,94.6%,102%,99%,105%,101%,89.7%,96.1%,97.4%,94.6%,102%,0,0,0,0,0,> 10 µM,> 10 µM,> 10 µM,> 10 µM,> 10 µM
CC[C@H](C)[C@@H]1NC(=O)[C@H](Cc2ccc(OC)cc2)NC(=O)CCCSC[C@@H](C(=O)N2CCC[C@H]2C(=O)N[C@@H](CC(C)C)C(=O)NCC(N)=O)NC(=O)[C@H](CC(N)=O)NC(=O)[C@H](CCC(N)=O)NC1=O [carbetocin],103%,104%,102%,106%,75.7%,94.9%,91.3%,98.4%,95.2%,100%,104%,104%,99.3%,101%,95.8%,103%,103%,91.3%,99.7%,93.3%,99.7%,98.6%,97.3%,90.5%,87.4%,0.6,0,0,0,0.3,> 10 µM,> 10 µM,> 10 µM,> 10 µM,> 10 µM
C[N+](C)(C)CC(O)CC(=O)[O-] (stereo not given) [carnitine-(D/L)],96.9%,102%,109%,99.9%,94.3%,94.1%,94.4%,87.2%,80.6%,95.9%,100%,101%,91%,106%,104%,98.1%,82.5%,92.1%,86.3%,80.9%,105%,77.6%,100%,81.8%,89.7%,0,0,0,2.2,0.7,> 10 µM,> 10 µM,> 10 µM,> 10 µM,> 10 µM
O=C(O)COCCN1CCN(C(c2ccccc2)c2ccc(Cl)cc2)CC1 (stereo not given) [cetirizine],94.7 ± 5.4%,105 ± 1.1%,100.25 ± 0.071%,95.8 ± 8.7%,102 ± 2.5%,95.5 ± 3.3%,98.05 ± 0.071%,96.2 ± 0.14%,93.8 ± 4.5%,102 ± 1.4%,93.7 ± 5.7%,97.3 ± 1.6%,88.5 ± 4.5%,95.3 ± 2.4%,100 ± 1.8%,100 ± 1.4%,100 ± 1.1%,101 ± 5.7%,103 ± 3.5%,102 ± 4.1%,91 ± 0.14%,81.8 ± 7.7%,97.8 ± 6.4%,88 ± 12%,107 ± 5.2%,0,0,0,0,0,> 10 µM,> 10 µM,> 10 µM,> 10 µM,> 10 µM
